Data reported in patent US20230181555A1, “STABLE AND PRESERVED PHARMACEUTICAL COMPOSITIONS OF BILASTINE” (priority 2019, published 2023).

Assays:
[1] = Solubility of bilastine in water; assay type: physicochemical; details: pH-dependent
[2] = Solubility of bilastine and mometasone furoate in formulations with HPBCD; assay type: physicochemical; details: HPBCD 75 mg/mL (7.5 wt %); FIG. 1B
Description: Six different formulations (with mometasone furoate monohydrate and the rest of excipients as defined in example 7) were prepared (see table below). The six formulations had amounts of HPBCD from 12.5 to 100 mg/mL. Then, in each of them an excessive amount of bilastine was added and the maximum solubility was tested. Furthermore, the percentage of the mometasone furoate dissolved was also tested. All the measurements were conducted at time 0.

Structure (SMILES) | solubility in water [1] | solubility of mometasone furoate [2]
CCOCCn1c(C2CCN(CCc3ccc(C(C)(C)C(=O)O)cc3)CC2)nc2ccccc21 [Bilastine, 2-[4-(2-{4-[1-(2-ethoxyethyl)-1H-benzimidazol-2-yl]-1-piperidinyl}ethyl)phenyl]-2-methylpropanoic acid] | only slightly soluble | 
C[C@@H]1C[C@H]2[C@@H]3CCC4=CC(=O)C=C[C@]4(C)[C@@]3(Cl)[C@@H](O)C[C@]2(C)[C@@]1(OC(=O)c1ccco1)C(=O)CCl.O [Mometasone Furoate monohydrate, Mometasone furoate monohydrate] |  | around 4 mg/mL
